Experimental data: article PMC11494886, “Discovery and design of molecular glue enhancers of CDK12–DDB1 interactions for targeted degradation of cyclin K” (RSC Chemical Biology, 2024)

Legend:
HEK-293TDDB1-shRNA cells = assay: CellTiter-Glo viability assay, HEK-293T DDB1-shRNA; assay type: cell-based, human; settings: 72 hours; for EC50: Homo sapiens, HEK-293T DDB1 shRNA, CellTiter-Glo, read-out: EC50 cell viability
Text: (§1) For stable genetic knock-down of DDB1 in cells, predesigned and validated TRC2-pLKO-puro shRNA plasmids for DDB1 (TRCN0000082855 and TRCN0000082856), and a non-targeting shRNA plasmid (SHC001) were obtained from Millipore Sigma. All plasmids were purified using the Qiagen Maxiprep kit (Qiagen). FuGENE HD 6 transfection reagent (Promega) was used for transfection of plasmids and lentiviral gene/shRNA constructs. Mission lentiviral packaging mix (Millipore Sigma) was used to package lentiviral plasmids into lentiviral particles in HEK293T cells, as per manufacturer's protocols. The resultant virus was concentrated using Vivaspin 20 centrifugal concentrators (Sartorius). MDA-MB-231 and HEK293T cells were transduced with lentivirus. Stable knocked down DDB1 (shDDB1-231 and shDDB1-HEK293T) cells were generated after selection with the antibiotic puromycin, and genetic knockdown was confirmed by western blotting.
(§2) Cell viability was measured by Cell Titer Glo assay kit (Promega, USA). EC50 was determined from the nonlinear regression and a four-parameter algorithm on the GraphPad Prism software.

[1] = test system: MDA-MB-231DDB1-shRNA cells; assay: CellTiter-Glo viability assay, MDA-MB-231 DDB1-shRNA; assay type: cell-based, human; settings: for EC50: Homo sapiens, MDA-MB-231 DDB1 shRNA, 72 hours, CellTiter-Glo, read-out: EC50 cell viability
Text: as §1, §2

Cdk12/CycK and DDB1ΔB = biological target: T1, Cdk12/CycK and DDB1ΔB (Homo sapiens, UniProt Q16531+Q9NYV4, DEL396-705); assay: Thermal stability (nanoDSF) of mixture of DDB1ΔB and Cdk12/CycK; assay type: binding; settings: Cdk12/CycK and DDB1ΔB 5 μM each, 3-fold molar excess of compound
T1 construct: the Cdk12 (714–1063)/CycK (1–267) complex and the DDB1ΔB protein; made in house; host or cells: Sf9 insect cells (MultiBacTurbo)
T1 sequence (Q9NYV4 714-1063, stated change not applied): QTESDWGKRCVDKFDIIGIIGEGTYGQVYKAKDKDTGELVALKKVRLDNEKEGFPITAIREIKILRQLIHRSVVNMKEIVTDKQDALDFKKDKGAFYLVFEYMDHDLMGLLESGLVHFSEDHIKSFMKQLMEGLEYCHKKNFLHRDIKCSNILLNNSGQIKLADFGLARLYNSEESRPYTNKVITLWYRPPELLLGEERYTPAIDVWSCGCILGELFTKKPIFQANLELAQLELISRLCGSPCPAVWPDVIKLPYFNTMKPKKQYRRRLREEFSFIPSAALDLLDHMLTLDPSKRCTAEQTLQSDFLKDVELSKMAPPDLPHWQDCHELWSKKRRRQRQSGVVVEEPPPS
T1 sequence (O75909 1-267 partner limits assumed): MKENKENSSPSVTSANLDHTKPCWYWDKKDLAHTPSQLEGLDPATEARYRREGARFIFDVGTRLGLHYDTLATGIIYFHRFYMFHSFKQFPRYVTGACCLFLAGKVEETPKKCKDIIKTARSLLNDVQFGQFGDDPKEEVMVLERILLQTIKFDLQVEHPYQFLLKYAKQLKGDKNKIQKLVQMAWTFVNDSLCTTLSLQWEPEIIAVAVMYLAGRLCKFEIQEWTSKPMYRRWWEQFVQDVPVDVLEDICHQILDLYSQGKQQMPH
T1 sequence (Q16531 with tags, fused parts or gaps DEL396-705): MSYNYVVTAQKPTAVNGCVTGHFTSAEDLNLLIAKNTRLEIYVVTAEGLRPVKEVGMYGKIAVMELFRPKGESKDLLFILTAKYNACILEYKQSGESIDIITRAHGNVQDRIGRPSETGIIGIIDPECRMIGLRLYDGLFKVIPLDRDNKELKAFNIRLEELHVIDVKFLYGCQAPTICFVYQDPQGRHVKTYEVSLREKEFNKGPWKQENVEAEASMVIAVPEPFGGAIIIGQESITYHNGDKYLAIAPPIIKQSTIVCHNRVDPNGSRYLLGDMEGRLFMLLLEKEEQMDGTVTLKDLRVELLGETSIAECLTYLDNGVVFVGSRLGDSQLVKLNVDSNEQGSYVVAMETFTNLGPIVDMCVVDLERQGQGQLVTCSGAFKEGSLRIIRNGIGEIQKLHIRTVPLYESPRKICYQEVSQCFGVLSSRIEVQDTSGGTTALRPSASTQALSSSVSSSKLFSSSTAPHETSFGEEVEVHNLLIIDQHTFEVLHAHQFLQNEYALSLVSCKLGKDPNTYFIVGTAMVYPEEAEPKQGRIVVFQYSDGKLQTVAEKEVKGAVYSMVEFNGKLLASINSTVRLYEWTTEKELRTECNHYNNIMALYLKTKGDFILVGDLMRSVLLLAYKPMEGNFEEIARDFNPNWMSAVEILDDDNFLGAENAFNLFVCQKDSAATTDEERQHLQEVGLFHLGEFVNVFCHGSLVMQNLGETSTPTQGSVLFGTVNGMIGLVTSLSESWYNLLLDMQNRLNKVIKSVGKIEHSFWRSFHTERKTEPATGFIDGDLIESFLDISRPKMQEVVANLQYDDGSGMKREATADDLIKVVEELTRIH
Text: Synthetic genes, codon optimized for expression in Sf9 insect cells, comprising the kinase domain of human Cdk12 (residues 714–1063, UniProt accession number Q9NYV4) and cyclin box domains of human cyclin K (residues 1–267, UniProt accession number O75909) were purchased from GeneArt. The coding sequence of Cdk12 was integrated into the pACEBac1 acceptor vector, while CycK was introduced into pIDK donor vector. Both target vectors underwent modification, wherein a GST-affinity tag followed by a tobacco etch virus (TEV) protease cleavage site was introduced upstream of the protein coding sequence. A pIDC donor vector was employed to insert full-length CDK-activating kinase CAK1 (UniProt accession number P43568) from S. cerevisiae devoid of any affinity tag. […]
The human wild-type BPB domain deletion version (ΔBPB: amino acids 396–705 deleted) of DNA damage-binding protein 1 (DDB1) (residues 1–1140 Δ396–705, UniProt accession number Q16531) was PCR-amplified from AddGene plasmid #124213 and inserted into a pACEBac1 vector, which had been modified with a N-terminal His6 affinity tag. […] After loading the supernatant, the column was washed with 10 column volumes (CV) lysis buffer to achieve baseline levels of absorbance at 280 nm wavelength, followed by 3 CV of wash buffer (50 mM Tris pH 8, 200 mM NaCl, 1 mM TCEP, 50 mM Imidazole) and another round of lysis buffer (5 CV). […]

SMILES	EC50 (HEK-293TDDB1-shRNA cells) [nM]	EC50 [1] [nM]	ΔTm (Cdk12/CycK and DDB1ΔB)	fold change of EC50 (DDB1 shRNA vs WT) (HEK-293TDDB1-shRNA cells; HEK-293T DDB1 shRNA vs WT HEK-293T)	fold change of EC50 (DDB1 shRNA vs WT) ([1]; MDA-MB-231 DDB1 shRNA vs WT MDA-MB-231, 72 hours)
Cn1cc(-n2cnc3c(NCc4nc5cc(Cl)c(Cl)cc5[nH]4)nc(N4CCOCC4)nc32)cn1 [SR-4835]	2000	218	+5.05 °C	–	–
CN(C)C/C=C/C(=O)Nc1ccc(C(=O)N2CCC[C@@H](Nc3ncc(Cl)c(-c4c[nH]c5ccccc45)n3)C2)cc1 [THZ531, reference compound]	231	65	+2 °C	ns	0.9
